Test results reported in patent publication US20140128352A1, “COMPOUNDS AND METHODS FOR MODULATING MITOCHONDRIAL METABOLISM AND REACTIVE OXYGEN SPECIES PRODUCTION” (Buck Institute for Research on Aging, priority 2012, published 2014).
Like-named read-outs stand apart in the source and are kept apart here.

Tests used:
[1] = tested on: ubiquinone binding site of complex I (IQ); assay: High-throughput screen: ROS production from ubiquinone binding site of complex I (IQ), isolated skeletal muscle mitochondria; format: biochemical, rat; conditions: percent change in ROS from DMSO controls
[2] = molecular target: T1, flavin binding site of complex I (IF) (Rattus norvegicus, UniProt Q5XIH3); assay: High-throughput screen: ROS production from flavin binding site of complex I (IF); format: biochemical; conditions: percent change in ROS from DMSO controls; for inhibition at 2.5 µM: Table 7, read-out: IF
T1 construct: freshly isolated muscle mitochondria were assayed; from tissue; host or cells: rat skeletal muscle mitochondria (Wistar, Harlan Laboratories)
T1 sequence (Q5XIH3 21-464 limits assumed, one chain of several): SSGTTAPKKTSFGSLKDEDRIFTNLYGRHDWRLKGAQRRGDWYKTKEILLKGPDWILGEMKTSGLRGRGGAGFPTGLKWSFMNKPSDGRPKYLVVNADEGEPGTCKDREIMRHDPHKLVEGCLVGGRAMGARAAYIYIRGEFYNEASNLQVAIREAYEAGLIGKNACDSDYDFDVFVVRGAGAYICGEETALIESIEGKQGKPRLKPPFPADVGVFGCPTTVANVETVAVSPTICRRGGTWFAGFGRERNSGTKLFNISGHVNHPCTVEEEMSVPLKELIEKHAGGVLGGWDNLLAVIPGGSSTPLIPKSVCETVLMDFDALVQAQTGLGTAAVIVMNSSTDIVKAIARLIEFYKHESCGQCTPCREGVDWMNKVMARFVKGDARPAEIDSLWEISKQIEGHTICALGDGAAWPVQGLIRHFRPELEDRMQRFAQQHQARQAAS
Description: (§1) Skeletal muscle mitochondria were isolated from 5-8 week old female Wistar rats (Harlan Laboratories). Minced muscle was homogenized in buffer containing bacterial protease Type VIII prior to differential centrifugation to separate mitochondria from other tissue components. Unless otherwise stated, freshly isolated muscle mitochondria were assayed in buffer containing 120 mM KCl, 5 mM HEPES, 1 mM EGTA, 0.3% (w/v) bovine serum albumin. Where indicated, CaCl2 was added to yield a final free concentration of 250 nM calcium at pH 7.0 at 37° C.
Master screening plates were prepared using a Biomek FX liquid handling workstation (Beckman) to transfer 1 μL of each compound into individual wells on 96-well storage plates (80 compounds per plate). […] Just prior to use, plates were brought to room temperature and diluted 300-fold with standard buffer (13.3X=33.3 μM). To monitor the performance of each assay throughout screening and to provide intra-plate normalization reference points, DMSO negative controls and known mitochondrial inhibitor positive controls were included on each Master compound plate.
(§2) Total amounts of superoxide and H2O2 production were determined fluorometrically as H2O2, without distinguishing between them, in the presence of exogenous superoxide dismutase (25 units/mL final), horseradish peroxidase (1 unit/mL final), and Amplex UltraRed (25 μM final) as described (Affourtit, C. et al. (2012) Measurement of proton leak and electron leak in isolated mitochondria. Methods Mol. Biol. 810: 165-82). Just prior to use, a bulk 3.3X solution was made in standard buffer and distributed into a 2 mL deep well 96-well transfer plate.
To assess the effects of a compound on ROS production from the flavin binding site of complex I (IF), Start Solution containing 5 mM glutamate, 5 mM malate and 4 μM rotenone was distributed into standard 96-well transfer plates. A Biomek FX workstation was programmed to dispense solutions into black 96-well assay plates. Solutions were dispensed to all assay plates in the following order: ROS Detection solution described in Example 3, Mitochondria solution described in Example 1 to a final concentration of 0.3 mg/ml, and Compound dilutions described in Example 2. Duplicate assay plates were made and each was initiated by the addition of 3.3X Start solution containing 5 mM glutamate, 5 mM malate and 4 μM rotenone. Plates were incubated in the dark at room temperature for 30-40 minutes before acquiring endpoint fluorescence using a Victor 3V plate reader (Perkin Elmer) equipped with 550/590 nm excitation/emission filters.
The fluorescence values in each well were scaled as the percent change from the intra-plate DMSO controls with the appropriate inhibitor positive controls defined as −100%. Following initial scaling, intra-plate normalized values were subjected to Tukey's two-way median polish to remove row and column dependent positional effects (Malo, N. et al. (2006) Statistical practice in high-throughput screening data analysis. Nat. Biotechnol. 24(2): 167-75).

[3] = molecular target: T2, outer ubiquinone binding site of complex III (IIIQO) (Rattus norvegicus, UniProt P00159+P20788); assay: High-throughput screen: ROS production from outer ubiquinone binding site of complex III (IIIQO); format: biochemical; conditions: for IIIQO: Table 8
T2 construct: freshly isolated muscle mitochondria were assayed; from tissue; host or cells: rat skeletal muscle mitochondria (Wistar, Harlan Laboratories)
Description: as §1
Compounds (10 mM in DMSO) were randomly selected from a library of 24,000 compounds obtained from ChemBridge and curated by the lab of Robert Hughes at the Buck Institute. Master screening plates were prepared using a Biomek FX liquid handling workstation (Beckman) to transfer 1 μL of each compound into individual wells on 96-well storage plates (80 compounds per plate). Master plates were sealed with foil and stored at −80° C. Just prior to use, plates were brought to room temperature and diluted 300-fold with standard buffer (13.3X=33.3 μM). To monitor the performance of each assay throughout screening and to provide intra-plate normalization reference points, DMSO negative controls and known mitochondrial inhibitor positive controls were included on each Master compound plate.
as §2
To assess the effects of a compound on ROS production from the outer ubiquinone binding site of complex III (IIIQO), Start Solution containing 5 mM succinate, 4 μM rotenone and 2.5 μM antimycin A was distributed into standard 96-well transfer plates. A Biomek FX workstation was programmed to dispense solutions into black 96-well assay plates. Solutions were dispensed to all assay plates in the following order: ROS Detection solution described in Example 3, Mitochondria solution described in Example 1 to a final concentration of 0.1 mg/ml, and Compound dilutions described in Example 2. Duplicate assay plates were made and each was initiated by the addition of 3.3X Start solution containing 5 mM succinate, 4 μM rotenone and 2.5 μM antimycin A. Plates were incubated in the dark at room temperature for 30-40 minutes before acquiring endpoint fluorescence using a Victor 3V plate reader (Perkin Elmer) equipped with 550/590 nm excitation/emission filters.
The fluorescence values in each well were scaled as the percent change from the intra-plate DMSO controls with the appropriate inhibitor positive controls defined as −100%. Following initial scaling, intra-plate normalized values were subjected to Tukey's two-way median polish to remove row and column dependent positional effects (Malo et al., 2006).

[4] = molecular target: T3, glycerol-3-phosphate dehydrogenase (GPDH) (Rattus norvegicus, UniProt P35571); assay: High-throughput screen: ROS production from glycerol-3-phosphate dehydrogenase (GPDH); format: biochemical; design: inhibition: dose or concentration left out as unconfirmed; conditions: for inhibition: Table 7; for inhibition / GPDH: percent change in ROS from DMSO controls; for inhibition at 2.5 µM: Table 6, 25 mM glycerol phosphate, rotenone, antimycin A, malonate, myxothiazol, compounds 2.5 μM, scaled to IQ positive controls, read-out: % Reduction in ROS Production (GPDH)
T3 construct: The activity of GPDH in intact mitochondria (0.3 mg/mL) was measured; from tissue; host or cells: rat skeletal muscle mitochondria (Wistar, Harlan Laboratories)
T3 sequence (P35571 43-727): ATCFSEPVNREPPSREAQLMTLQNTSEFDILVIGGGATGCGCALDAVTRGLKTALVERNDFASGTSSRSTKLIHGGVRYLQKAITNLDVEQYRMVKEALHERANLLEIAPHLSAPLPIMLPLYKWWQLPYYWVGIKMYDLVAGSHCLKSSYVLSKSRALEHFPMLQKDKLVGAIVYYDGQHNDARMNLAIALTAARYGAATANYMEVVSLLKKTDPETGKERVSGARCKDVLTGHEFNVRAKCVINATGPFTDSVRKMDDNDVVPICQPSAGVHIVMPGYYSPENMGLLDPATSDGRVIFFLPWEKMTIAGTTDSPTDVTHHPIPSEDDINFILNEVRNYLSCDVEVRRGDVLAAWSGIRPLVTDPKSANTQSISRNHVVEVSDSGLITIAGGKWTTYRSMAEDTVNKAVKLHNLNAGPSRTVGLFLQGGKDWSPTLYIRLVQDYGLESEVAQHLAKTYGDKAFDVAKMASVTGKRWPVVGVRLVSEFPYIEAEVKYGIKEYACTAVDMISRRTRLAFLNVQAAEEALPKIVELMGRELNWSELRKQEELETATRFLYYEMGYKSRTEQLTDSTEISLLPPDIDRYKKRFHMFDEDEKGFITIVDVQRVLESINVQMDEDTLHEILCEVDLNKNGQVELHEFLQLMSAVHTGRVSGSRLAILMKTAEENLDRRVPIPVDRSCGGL

[5] = tested on: mitochondrial membrane potential (ΔΨm); assay: Membrane potential (ΔΨm) counterscreen with TMRM; conditions: malate, nigericin
[6] = molecular target: T4, succinate dehydrogenase/complex II (SDH) (Rattus norvegicus, UniProt P21913+Q641Z9+Q6PCT8+Q920L2); assay: High-throughput screen: ROS production from succinate dehydrogenase/complex II (SDH); format: biochemical; conditions: for inhibition at 2.5 µM: Table 7; for inhibition at 2.5 µM / SDH: percent change in ROS from DMSO controls
T4 construct: freshly isolated muscle mitochondria were assayed; from tissue; host or cells: rat skeletal muscle mitochondria (Wistar, Harlan Laboratories)
T4 sequence (Q920L2 35-656): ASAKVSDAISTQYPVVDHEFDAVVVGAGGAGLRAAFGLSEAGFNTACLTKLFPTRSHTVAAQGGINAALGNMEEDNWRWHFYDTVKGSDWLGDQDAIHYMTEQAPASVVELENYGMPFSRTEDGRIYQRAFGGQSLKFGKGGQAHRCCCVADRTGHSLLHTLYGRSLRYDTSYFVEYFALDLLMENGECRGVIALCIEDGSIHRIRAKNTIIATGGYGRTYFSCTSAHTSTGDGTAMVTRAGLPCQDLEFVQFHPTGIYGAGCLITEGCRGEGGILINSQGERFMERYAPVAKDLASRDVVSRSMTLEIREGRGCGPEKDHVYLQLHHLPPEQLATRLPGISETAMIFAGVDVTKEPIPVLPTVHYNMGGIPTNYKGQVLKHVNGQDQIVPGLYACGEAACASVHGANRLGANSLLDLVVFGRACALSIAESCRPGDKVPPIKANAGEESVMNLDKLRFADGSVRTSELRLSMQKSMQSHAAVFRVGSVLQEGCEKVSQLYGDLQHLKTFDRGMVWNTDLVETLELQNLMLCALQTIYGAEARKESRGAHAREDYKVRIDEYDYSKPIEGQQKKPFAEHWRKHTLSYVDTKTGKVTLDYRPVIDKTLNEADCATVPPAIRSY
T4 sequence (P21913 31-282): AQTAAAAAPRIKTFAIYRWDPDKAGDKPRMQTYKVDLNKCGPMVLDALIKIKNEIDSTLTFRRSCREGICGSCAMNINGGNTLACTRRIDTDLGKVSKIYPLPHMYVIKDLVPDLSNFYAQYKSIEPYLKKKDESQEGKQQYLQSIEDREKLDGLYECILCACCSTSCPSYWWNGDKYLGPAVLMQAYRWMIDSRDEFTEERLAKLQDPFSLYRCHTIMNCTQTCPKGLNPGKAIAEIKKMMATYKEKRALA
T4 sequence (Q641Z9 30-169 limits assumed): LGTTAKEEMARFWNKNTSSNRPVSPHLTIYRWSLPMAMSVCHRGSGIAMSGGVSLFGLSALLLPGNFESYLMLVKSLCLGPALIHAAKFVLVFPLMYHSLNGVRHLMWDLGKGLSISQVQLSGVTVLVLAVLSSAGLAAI
T4 sequence (Q6PCT8 57-159): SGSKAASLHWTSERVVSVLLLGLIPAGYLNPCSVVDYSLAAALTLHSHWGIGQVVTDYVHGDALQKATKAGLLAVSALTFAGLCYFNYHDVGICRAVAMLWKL

[7] = Table 7, percent change in ROS from DMSO controls, read-out: IIIQO
[8] = percent change in ROS from DMSO controls
[9] = Table 9, percent change in ROS from DMSO controls, read-out: IIIQo
[10] = Table 4, 5 mM succinate, 4 μM rotenone, 2.5 μM antimycin A, compounds 2.5 μM, percent change from DMSO, read-out: % Reduction in ROS production (IIIQO)

SMILES	IQ ([1]; Table 7)	IQ ([1]; Table 8)	IQ ([1]; Table 9)	inhibition at 2.5 µM [2]	IF ([2]; Table 8)	IF ([2]; Table 9)	inhibition at 2.5 µM [3, 7]	IIIQO [3, 8]	inhibition at 2.5 µM [3, 9]	inhibition [4]	GPDH ([4]; Table 8)	GPDH ([4]; Table 9)	ΔΨm ([5]; Table 8, glutamate)	ΔΨm ([5]; Table 9, glutamate)	inhibition at 2.5 µM [3, 10]	inhibition at 2.5 µM [6]	inhibition at 2.5 µM [4]	% Reduction in ROS Production (SDH) ([6]; Table 5, 15 μM palmitoyl carnitine, 2.5 μM antimycin A, 2 μM myxothiazol, compounds 2.5 μM, percent change from DMSO)	SDH ([6]; Table 8)	SDH ([6]; Table 9)
COc1cccc(CCNC2C3CC4CC(C3)CC2C4)c1 (stereo not drawn) [Compound 26]	−0.8	−0.8	−0.8	19.6%	−19.6	−19.6	1.8%	−1.8	1.8%	3.3%	−3.3	−3.3	−0.7	−0.7	–	–	–	–	–	–
CCCCN(Cc1ccccc1)Cc1cc(Cl)cc(Cl)c1O [Compound 38]	−3.9	−3.9	−3.9	1.8%	−1.8	−1.8	31.3%	−31.3	31.3%	-3.7%	3.7	3.7	0.3	0.3	31.3%	–	–	–	–	–
Fc1ccc(N2CCN(CC(c3ccccc3)c3ccccc3)CC2)cc1 [Compound 39]	2.7	2.7	2.7	0.9%	−0.9	−0.9	26.8%	−26.8	26.8%	4.7%	−4.7	−4.7	0.5	0.5	26.8%	–	–	–	–	–
COC(=O)c1ccc(CN(CCc2ccccc2)Cc2ccccc2)cc1 [Compound 43]	−0.5	−0.5	−0.5	4.4%	−4.4	−4.4	23.2%	−23.2	23.2%	-3.4%	3.4	3.4	0.6	0.6	23.2%	–	–	–	–	–
CCCCN(Cc1ccccc1)Cc1cccc(Oc2ccc(Cl)cc2)c1 [Compound 44]	0.4	0.4	0.4	-3.1%	3.1	3.1	23.1%	−23.1	23.1%	3.4%	−3.4	−3.4	1.0	1.0	23.1%	–	–	–	–	–
C=C(C)CN(CC)Cc1cc([N+](=O)[O-])ccc1Cl [Compound 45]	−0.2	−0.2	−0.2	-0.5%	0.5	0.5	20.2%	−20.2	20.2%	-3.1%	3.1	3.1	0.3	0.3	20.2%	–	–	–	–	–
COC(=O)CCC(=O)Nc1ccc(C)cc1 [Compound 53]	0.1	–	–	-1.3%	–	–	-0.8%	–	–	-0.9%	–	–	–	–	–	0.3%	0%	–	–	–
CCCCCCNC(=O)CCC(=O)O [Compound 54]	2.3	–	–	-8%	–	–	-2.5%	–	–	-3.3%	–	–	–	–	–	-4.4%	-0.9%	–	–	–
c1ccc2[nH]c(-c3ccc(-c4nc5ccccc5[nH]4)cc3)nc2c1 [Compound 55]	−3.9	–	–	1.9%	–	–	-3.3%	–	–	-1.5%	–	–	–	–	–	-1.5%	-3.3%	–	–	–
C=C(C)C(=O)Nc1ccc(-c2nc3ccccc3[nH]2)cc1 [Compound 56]	−0.3	–	–	-0.3%	–	–	-1.4%	–	–	0.8%	–	–	–	–	–	2.9%	-1.5%	–	–	–
O=C(O)CCC(=O)Nc1ccc(-c2nc3cc(NC(=O)CCC(=O)O)ccc3[nH]2)cc1 [Compound 57]	3.1	–	–	-1.7%	–	–	-0.4%	–	–	-0.2%	–	–	–	–	–	-4.2%	0.8%	–	–	–
O=C(O)CCC(=O)Nc1ccc(Cl)cc1 [Compound 58]	−6.4	–	–	-0.1%	–	–	-0.8%	–	–	1.2%	–	–	–	–	–	-1.5%	-0.2%	–	–	–
CC(=O)Nc1ccc(-c2nc3ccccc3[nH]2)cc1 [Compound 59]	−12.3	–	–	3%	–	–	1.3%	–	–	4.4%	–	–	–	–	–	5.1%	1.2%	–	–	–
O=C(O)CCC(=O)Nc1cccc(-c2nc3ccccc3[nH]2)c1 [Compound 60]	−43.9	–	–	4.2%	–	–	-1.1%	–	–	48.3%	–	–	–	–	–	3.4%	4.4%	–	–	–
O=C(Nc1ccc(-c2nc3ccccc3[nH]2)cc1)c1ccco1 [Compound 63]	−6.9	–	–	-0.9%	–	–	-1.8%	–	–	-8.2%	–	–	–	–	–	-3.5%	1.7%	–	–	–
CCOc1ccc(C(=O)Nc2ccc(-c3nc4ccccc4[nH]3)cc2)cc1 [Compound 64]	−15.3	–	–	3.8%	–	–	1%	–	–	13%	–	–	–	–	–	-9.8%	-8.2%	–	–	–
O=C(O)CCC(=O)Nc1ccc(-c2nc3ccccc3s2)cc1 [Compound 65]	−11.0	–	–	1.3%	–	–	1%	–	–	1.9%	–	–	–	–	–	-0.2%	13%	–	–	–
O=C(Nc1ccc(-c2nc3ccccc3[nH]2)cc1)C1CC1 [Compound 66]	−2.8	–	–	0.2%	–	–	1.2%	–	–	-1.8%	–	–	–	–	–	2.5%	1.9%	–	–	–
Cc1ccc(NC(=O)CCC(=O)O)cc1 [Compound 67]	−11.7	–	–	10.1%	–	–	6.5%	–	–	11.1%	–	–	–	–	–	16.8%	-1.8%	–	–	–
CCCC(=O)Nc1ccc(-c2nc3cc4ccccc4cc3[nH]2)cc1 [Compound 68]	−23.0	–	–	1.3%	–	–	-1.1%	–	–	32.1%	–	–	–	–	–	3.7%	11.1%	–	–	–
O=C(O)CCC(=O)Nc1ccc(-c2nc3cc(C(=O)c4ccccc4)ccc3[nH]2)cc1 [Compound 69]	−20.1	–	–	1.8%	–	–	-5.5%	–	–	26%	–	–	–	–	–	6.3%	32.1%	–	–	–
Cc1ccc2[nH]c(-c3ccc(NC(=O)CCC(=O)O)cc3)nc2c1 [Compound 70]	−0.2	–	–	2.2%	–	–	0.4%	–	–	0%	–	–	–	–	–	-4.6%	26%	–	–	–
CC1CC(C)(C)N(C=O)c2ccccc21 (stereo not drawn) [Compound 71]	1.6	1.6	1.6	-7%	7.0	7.0	-6.3%	6.3	-6.3%	0.6%	−0.6	−0.6	–	–	–	87.6%	–	−87.6%	−87.6	−87.6
